Assay results taken from patent US8889677B2, “Substituted triazoles useful as mGlu5 receptor modulators” (Boehringer Ingellheim International GmbH, priority 2012, dated 2014).

Target: T1, human recombinant mGluR5 (Homo sapiens, UniProt P41594)
T1 construct: expressed in transfected cells; host or cells: HEK 293 cell line cultured with tetracycline, hygromycin and geneticin; tetracycline removed 3-7 days before the assay
Test: positive modulation of mGluR5, calcium based FLIPR assay in HEK 293 cells
Conditions: HEK 293 cell line expressing human recombinant mGluR5; EC50 of the modulation of the glutamate response (glutamate approx. 5% basal stimulation); peak height of Ca release fluorescence signal
Description: The positive modulation of mGluR5 is measured in a HEK 293 cell line expressing human recombinant mGluR5 and is detected with calcium based FLIPR assay. The cells are cultured with DMEM supplemented with 10% FCS, 2 μg/mL tetracycline, 100 μg/mL hygromycin and 500 μg/mL gneticin. The cell culture media is exchanged for tetracycline-free cell culture media 3-7 days before the assay. One day before the assay the cell culture medium is exchanged to DMEM without glutamine and phenol red and supplemented with 10% FCS, 100 μg/mL hygromycin and 500 μg/mL geneticin. On the assay day, the medium of the subconfluent cultures is removed and the cells are detached by addition of 2.5 ml EDTA (0.02%) per 175 cm2 culture flask for 1 minute. The cells are resuspend in Ringer solution (140 mM NaCl, 5 mM KCl, 2.5 mM CaCl2, 1.5 mM MgCl2, 5 mM Glucose, 10 mM Hepes; adjusted to pH 7.4 with NaOH), pooled and Ringer solution added to adjust the volume to 50 mL. The cell suspension is centrifuged for […] at 1500 U/min (425 g). The supernatant is removed and the cells washed a second time with 50 ml fresh Ringer solution and centrifuged again as before. The supernatant is again removed and the pellet resuspended in Ringer solution to 1,000,000 cells/ml (1×10^6 cells/mL). The cells are plated onto BD BioCoat Poly-D-Lysine 384 well plates (20.000 cells/well; 20 μl/well). The lid covered plates are then incubated until use at 37° C./10% CO2. For dye loading, 20 μl of Calcium-4 assay kit solution (prepared according to the manufacturer's description in Ringer solution) are added to the cells and the plates are incubated for 80 min 37° C. and then 10 min at room temperature.
Controls, Compound Dilution and Assay Execution:
Each assay plate contained wells with “high” and “low” controls:
Low controls 1% DMSO/ringer solution+basal glutamate activation (defined as 100% CTL).
High controls 10 μM CDPPB+basal glutamate activation (defined as 200% CTL).
Test compounds are dissolved and diluted in DMSO to 100-fold the desired concentrations. In a second step, the compounds are diluted in Ringer solution such that the compounds are 4-fold more concentrated than the desired final assay concentration. The final DMSO concentration was 1%.
20 μl of each compound solution are then transferred to the assay plate and the Ca2+ kinetic is measured to determine any intrinsic compound activity. After 5 min incubation in the FLIPR device, the second stimulation with 20 μl of glutamate in Ringer solution (glutamate concentration adjusted to approximately 5% basal stimulation of the maximal possible glutamate effect) is added and the kinetic Ca2+ response of the wells was measured for the modulation effect.
The peak height of the Ca release related fluorescence signal (9-66) is used for the EC50. The EC50 of the modulation is calculated over a nonlinear regression with GraphPad Prism (Table 1).

T1 sequence (P41594 21-1212): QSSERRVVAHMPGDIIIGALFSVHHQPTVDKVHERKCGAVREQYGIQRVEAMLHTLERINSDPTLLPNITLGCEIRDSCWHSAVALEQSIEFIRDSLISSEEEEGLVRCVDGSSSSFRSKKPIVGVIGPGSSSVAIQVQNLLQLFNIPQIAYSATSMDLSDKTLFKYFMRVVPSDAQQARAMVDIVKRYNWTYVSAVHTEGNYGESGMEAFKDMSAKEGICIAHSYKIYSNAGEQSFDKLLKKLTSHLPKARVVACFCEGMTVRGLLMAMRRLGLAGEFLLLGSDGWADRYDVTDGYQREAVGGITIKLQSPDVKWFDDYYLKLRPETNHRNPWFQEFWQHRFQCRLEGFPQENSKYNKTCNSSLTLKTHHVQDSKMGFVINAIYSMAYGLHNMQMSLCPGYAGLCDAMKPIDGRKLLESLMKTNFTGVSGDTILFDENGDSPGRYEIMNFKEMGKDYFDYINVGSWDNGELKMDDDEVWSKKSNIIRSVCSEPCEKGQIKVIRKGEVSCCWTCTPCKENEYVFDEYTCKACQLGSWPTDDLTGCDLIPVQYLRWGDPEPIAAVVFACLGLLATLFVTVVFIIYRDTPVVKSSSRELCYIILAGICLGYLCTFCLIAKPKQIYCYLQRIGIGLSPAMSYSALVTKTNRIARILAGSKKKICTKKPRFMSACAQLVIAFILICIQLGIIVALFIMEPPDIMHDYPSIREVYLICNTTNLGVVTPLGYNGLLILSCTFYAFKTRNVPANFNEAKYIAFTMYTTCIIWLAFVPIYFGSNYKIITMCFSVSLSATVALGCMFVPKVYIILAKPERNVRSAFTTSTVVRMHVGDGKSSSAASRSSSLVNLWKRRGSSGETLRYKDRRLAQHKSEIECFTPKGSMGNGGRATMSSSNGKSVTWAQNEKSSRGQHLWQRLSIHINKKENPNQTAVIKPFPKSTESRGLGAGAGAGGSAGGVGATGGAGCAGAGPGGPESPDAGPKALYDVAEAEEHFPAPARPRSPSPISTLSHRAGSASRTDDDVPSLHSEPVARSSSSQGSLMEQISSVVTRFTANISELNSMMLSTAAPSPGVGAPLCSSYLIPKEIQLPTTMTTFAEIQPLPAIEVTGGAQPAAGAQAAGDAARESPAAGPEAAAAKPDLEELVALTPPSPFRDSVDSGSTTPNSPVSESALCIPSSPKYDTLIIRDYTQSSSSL

| Compound | EC50 [µM] |
| --- | --- |
| O=C(Cn1nc(-c2ccc(F)cc2)nc1C1CCCC1)N1CCN(c2ncccn2)CC1 [Example 07.04.046.] | 0.586 |
| O=C(Cn1nc(-c2ccc(F)cc2)nc1C1CCCC1)N1CCN(c2ccccn2)CC1 [Example 07.04.047.] | 1.38 |
| Cc1ccnc(N2CCN(C(=O)Cn3nc(-c4ccc(F)cc4)nc3C3CCCC3)CC2)c1 [Example 07.04.048.] | 0.591 |
| COc1cccc(-c2nc(-c3ccc(F)cc3)n(CC(=O)N3CCN(c4ccccn4)CC3)n2)c1 [Example 07.04.049.] | 0.037 |
| COc1cccc(-c2nc(-c3ccc(F)cc3)nn2CC(=O)N2CCN(c3ccccn3)CC2)c1 [Example 07.04.050.] | 0.459 |
| COc1cccc(-c2nc(C3CCCCC3)n(CC(=O)N3CCN(c4ncccn4)CC3)n2)c1 [Example 07.04.051.] | 0.997 |
| COc1cccc(-c2nc(C3CCCCC3)n(CC(=O)N3CCN(c4cc(C)ccn4)CC3)n2)c1 [Example 07.04.052.] | 0.898 |
| COc1cccc(-c2nc(C3CCCCC3)n(CC(=O)N3CCN(c4ccccn4)CC3)n2)c1 [Example 07.04.053.] | 1.15 |
| COc1ccc(-c2nc(-c3ccccc3)n(CC(=O)N3CCN(c4ccccn4)CC3)n2)cc1 [Example 07.04.054.] | 0.1 |
| CCOc1ccnc(N2CCN(C(=O)Cn3nc(-c4ccc(OC)cc4)nc3-c3ccccc3)CC2)c1 [Example 07.04.055.] | 0.101 |
| COc1ccc(-c2nc(-c3ccccc3)n(CC(=O)N3CCN(c4cc(OC)ccn4)CC3)n2)cc1 [Example 07.04.056.] | 0.064 |
| Cc1cc(-c2nc(-c3ccccc3)n(CC(=O)N3CCN(c4ncc(Br)cn4)CC3)n2)ccc1Br [Example 07.04.057.] | 0.075 |
| Cc1cc(-c2nc(-c3ccccc3)n(CC(=O)N3CCN(c4ncc(Cl)cn4)CC3)n2)ccc1F [Example 07.04.058.] | 0.025 |
| Cc1cc(-c2nc(-c3ccccc3)n(CC(=O)N3CCN(c4cccnn4)CC3)n2)ccc1F [Example 07.04.059.] | 0.16 |
| COc1cc(N2CCN(C(=O)Cn3nc(-c4ccc(F)c(C)c4)nc3-c3ccccc3)CC2)ncn1 [Example 07.04.060.] | 0.055 |
| Cc1cc(-c2nc(-c3ccccc3)n(CC(=O)N3CCN(c4ccccn4)CC3)n2)ccc1F [Example 07.04.061.] | 0.067 |
| Cc1ccnc(N2CCN(C(=O)Cn3nc(-c4ccc(F)c(C)c4)nc3-c3ccccc3)CC2)c1 [Example 07.04.062.] | 0.057 |
| COc1ccnc(N2CCN(C(=O)Cn3nc(-c4ccc(F)c(C)c4)nc3-c3ccccc3)CC2)c1 [Example 07.04.063.] | 0.061 |
| COc1cnnc(N2CCN(C(=O)Cn3nc(-c4ccc(F)c(C)c4)nc3-c3ccccc3)CC2)c1 [Example 07.04.064.] | 0.192 |
| COc1cc(N2CCN(C(=O)Cn3nc(-c4ccc(F)c(C)c4)nc3C3CCCCC3)CC2)ncn1 [Example 07.04.065.] | 0.296 |

| Compound | EC50 [µM] |
| --- | --- |
| Cc1cc(-c2nc(C3CCCCC3)n(CC(=O)N3CCN(c4ncccn4)CC3)n2)ccc1F [Example 07.04.066.] | 0.101 |
| Cc1ccnc(N2CCN(C(=O)Cn3nc(-c4ccc(F)c(C)c4)nc3C3CCCCC3)CC2)c1 [Example 07.04.067.] | 0.207 |
| COc1ccnc(N2CCN(C(=O)Cn3nc(-c4ccc(F)c(C)c4)nc3C3CCCCC3)CC2)c1 [Example 07.04.068.] | 0.246 |
| Cc1cc(-c2nc(C3CCCCC3)n(CC(=O)N3CCN(c4ncc(Cl)cn4)CC3)n2)ccc1F [Example 07.04.069.] | 0.229 |
| Cc1cc(-c2nc(C3CCCCC3)n(CC(=O)N3CCN(c4ncc(Br)cn4)CC3)n2)ccc1F [Example 07.04.070.] | 0.318 |
| Cc1cc(-c2nc(C3CCCCC3)n(CC(=O)N3CCN(c4ccccn4)CC3)n2)ccc1F [Example 07.04.071.] | 0.347 |
| Cc1cc(-c2nc(C3CCCCC3)n(CC(=O)N3CCN(c4cccnn4)CC3)n2)ccc1F [Example 07.04.072.] | 0.257 |
| Cc1cc(-c2nc(-c3ccccc3)nn2CC(=O)N2CCN(c3ncccn3)CC2)ccc1F [Example 07.04.073.] | 0.087 |
| COc1cc(N2CCN(C(=O)Cn3nc(-c4ccccc4)nc3-c3ccc(F)c(C)c3)CC2)ncn1 [Example 07.04.074.] | 0.325 |
| Cc1ccnc(N2CCN(C(=O)Cn3nc(-c4ccccc4)nc3-c3ccc(F)c(C)c3)CC2)c1 [Example 07.04.075.] | 0.657 |
| Cc1cc(-c2nc(-c3ccccc3)nn2CC(=O)N2CCN(c3ccccn3)CC2)ccc1F [Example 07.04.076.] | 0.22 |
| COc1cc(-c2nc(-c3ccc(F)cc3)nn2CC(=O)N2CCN(c3ncccn3)CC2)ccc1F [Example 07.04.077.] | 0.244 |
| COc1cc(N2CCN(C(=O)Cn3nc(-c4ccc(F)cc4)nc3-c3ccc(F)c(OC)c3)CC2)ncn1 [Example 07.04.079.] | 1.33 |
| CCCc1nc(-c2ccc(F)c(C)c2)nn1CC(=O)N1CCN(c2cc(OC)ncn2)CC1 [Example 07.04.080.] | 0.771 |
| CCCc1nc(-c2ccc(F)c(C)c2)nn1CC(=O)N1CCN(c2cc(OC)ccn2)CC1 [Example 07.04.081.] | 0.353 |
| CCCc1nc(-c2ccc(F)c(C)c2)nn1CC(=O)N1CCN(c2cc(C)ccn2)CC1 [Example 07.04.082.] | 0.306 |
| CCCc1nc(-c2ccc(F)c(C)c2)nn1CC(=O)N1CCN(c2ccccn2)CC1 [Example 07.04.083.] | 0.497 |
| CCCc1nc(-c2ccc(F)c(C)c2)nn1CC(=O)N1CCN(c2ncncn2)CC1 [Example 07.04.084.] | 1.6 |
| CCCc1nc(-c2ccc(F)c(C)c2)nn1CC(=O)N1CCN(c2ncccn2)CC1 [Example 07.04.085.] | 0.379 |
| COc1cc(N2CCN(C(=O)Cn3nc(-c4ccc(F)c(C)c4)nc3C(C)C)CC2)ncn1 [Example 07.04.086.] | 1.17 |

| Compound | EC50 [µM] |
| --- | --- |
| Cc1cc(-c2nc(C(C)C)n(CC(=O)N3CCN(c4ccccn4)CC3)n2)ccc1F [Example 07.04.087.] | 0.904 |
| COc1ccnc(N2CCN(C(=O)Cn3nc(-c4ccc(F)c(C)c4)nc3C(C)C)CC2)c1 [Example 07.04.088.] | 0.896 |
| Cc1cc(-c2nc(C(C)C)n(CC(=O)N3CCN(c4ncccn4)CC3)n2)ccc1F [Example 07.04.089.] | 0.34 |
| Cc1ccnc(N2CCN(C(=O)Cn3nc(-c4ccc(F)c(C)c4)nc3C(C)C)CC2)c1 [Example 07.04.090.] | 1.16 |
| CCc1nc(-c2ccc(F)c(C)c2)nn1CC(=O)N1CCN(c2ccccn2)CC1 [Example 07.04.091.] | 1.09 |
| CCc1nc(-c2ccc(F)c(C)c2)nn1CC(=O)N1CCN(c2ncccn2)CC1 [Example 07.04.092.] | 0.654 |
| CCc1nc(-c2ccc(F)c(C)c2)nn1CC(=O)N1CCN(c2cc(OC)ncn2)CC1 [Example 07.04.093.] | 1.73 |
| CCc1nc(-c2ccc(F)c(C)c2)nn1CC(=O)N1CCN(c2cc(OC)ccn2)CC1 [Example 07.04.094.] | 0.991 |
| Cc1cc(-c2nc(C)n(CC(=O)N3CCN(c4ccccn4)CC3)n2)ccc1F [Example 07.04.095.] | 1.66 |
| COc1ccnc(N2CCN(C(=O)Cn3nc(-c4ccc(F)c(C)c4)nc3C)CC2)c1 [Example 07.04.096.] | 1.52 |
| Cc1cc(-c2nc(C)n(CC(=O)N3CCN(c4ncccn4)CC3)n2)ccc1F [Example 07.04.097.] | 1.19 |
| Cc1ccnc(N2CCN(C(=O)Cn3nc(-c4ccc(F)c(C)c4)nc3C)CC2)c1 [Example 07.04.098.] | 0.738 |
| CCC(C)c1nc(-c2ccc(F)c(C)c2)nn1CC(=O)N1CCN(c2cc(C)ccn2)CC1 (stereo not shown) [Example 07.04.099.] | 0.499 |
| CCC(C)c1nc(-c2ccc(F)c(C)c2)nn1CC(=O)N1CCN(c2cc(OC)ccn2)CC1 (stereo not shown) [Example 07.04.0100.] | 0.67 |
| CCC(C)c1nc(-c2ccc(F)c(C)c2)nn1CC(=O)N1CCN(c2ncccn2)CC1 (stereo not shown) [Example 07.04.101.] | 0.294 |
| CCC(C)c1nc(-c2ccc(F)c(C)c2)nn1CC(=O)N1CCN(c2ccccn2)CC1 (stereo not shown) [Example 07.04.102.] | 0.998 |
| CCC(C)c1nc(-c2ccc(F)c(C)c2)nn1CC(=O)N1CCN(c2cc(OC)ncn2)CC1 (stereo not shown) [Example 07.04.103.] | 0.748 |
| CCC(C)c1nc(-c2ccc(F)c(C)c2)nn1CC(=O)N1CCN(c2cccnn2)CC1 (stereo not shown) [Example 07.04.104.] | 1.85 |
